Measurements from patent publication US20180099931A1 (AbbVie S.à.r.l., priority 2016, published 2018).
Where two headings read alike, the source gives them in different places.

Target: T1, F508delCFTR (Homo sapiens, UniProt P13569, DEL508-508)
T1 construct: expressed in transfected cells; host or cells: CFBE41o- human lung-derived epithelial cells (CFBE4lo-F508delCFTR-HRP), doxycycline-inducible
Test: Cell Surface Expression-Horse Radish Peroxidase (CSE-HRP) Assay;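 for Maximum % activity (with co-corrector): co-corrector and positive control are both the same reference corrector at 2 µM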;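 for Maximum % activity (without co-corrector): percent of the 2 µM on-plate positive control corrector response above DMSO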
Type: cell-based
Details: for Maximum % activity (with co-corrector): with co-corrector (2 μM); for Emax: read-out: Maximum % activity (without co-corrector)

[1] = test compound without co-corrector, read-out: EC50 (without co-corrector)
[2] = with co-corrector (2 μM of 3-[(2R,4R)-4-({[1-(2,2-difluoro-1,3-benzodioxol-5-yl)cyclopropyl]carbonyl}amino)-7-methoxy-3,4-dihydro-2H-chromen-2-yl]benzoic acid), read-out: EC50 (with co-corrector)
[3] = maximum at any tested concentration, normalized to on-plate positive control
[4] = without co-corrector, maximum at any tested concentration, normalized to on-plate positive control

T1 sequence (P13569 with tags, fused parts or gaps DEL508-508): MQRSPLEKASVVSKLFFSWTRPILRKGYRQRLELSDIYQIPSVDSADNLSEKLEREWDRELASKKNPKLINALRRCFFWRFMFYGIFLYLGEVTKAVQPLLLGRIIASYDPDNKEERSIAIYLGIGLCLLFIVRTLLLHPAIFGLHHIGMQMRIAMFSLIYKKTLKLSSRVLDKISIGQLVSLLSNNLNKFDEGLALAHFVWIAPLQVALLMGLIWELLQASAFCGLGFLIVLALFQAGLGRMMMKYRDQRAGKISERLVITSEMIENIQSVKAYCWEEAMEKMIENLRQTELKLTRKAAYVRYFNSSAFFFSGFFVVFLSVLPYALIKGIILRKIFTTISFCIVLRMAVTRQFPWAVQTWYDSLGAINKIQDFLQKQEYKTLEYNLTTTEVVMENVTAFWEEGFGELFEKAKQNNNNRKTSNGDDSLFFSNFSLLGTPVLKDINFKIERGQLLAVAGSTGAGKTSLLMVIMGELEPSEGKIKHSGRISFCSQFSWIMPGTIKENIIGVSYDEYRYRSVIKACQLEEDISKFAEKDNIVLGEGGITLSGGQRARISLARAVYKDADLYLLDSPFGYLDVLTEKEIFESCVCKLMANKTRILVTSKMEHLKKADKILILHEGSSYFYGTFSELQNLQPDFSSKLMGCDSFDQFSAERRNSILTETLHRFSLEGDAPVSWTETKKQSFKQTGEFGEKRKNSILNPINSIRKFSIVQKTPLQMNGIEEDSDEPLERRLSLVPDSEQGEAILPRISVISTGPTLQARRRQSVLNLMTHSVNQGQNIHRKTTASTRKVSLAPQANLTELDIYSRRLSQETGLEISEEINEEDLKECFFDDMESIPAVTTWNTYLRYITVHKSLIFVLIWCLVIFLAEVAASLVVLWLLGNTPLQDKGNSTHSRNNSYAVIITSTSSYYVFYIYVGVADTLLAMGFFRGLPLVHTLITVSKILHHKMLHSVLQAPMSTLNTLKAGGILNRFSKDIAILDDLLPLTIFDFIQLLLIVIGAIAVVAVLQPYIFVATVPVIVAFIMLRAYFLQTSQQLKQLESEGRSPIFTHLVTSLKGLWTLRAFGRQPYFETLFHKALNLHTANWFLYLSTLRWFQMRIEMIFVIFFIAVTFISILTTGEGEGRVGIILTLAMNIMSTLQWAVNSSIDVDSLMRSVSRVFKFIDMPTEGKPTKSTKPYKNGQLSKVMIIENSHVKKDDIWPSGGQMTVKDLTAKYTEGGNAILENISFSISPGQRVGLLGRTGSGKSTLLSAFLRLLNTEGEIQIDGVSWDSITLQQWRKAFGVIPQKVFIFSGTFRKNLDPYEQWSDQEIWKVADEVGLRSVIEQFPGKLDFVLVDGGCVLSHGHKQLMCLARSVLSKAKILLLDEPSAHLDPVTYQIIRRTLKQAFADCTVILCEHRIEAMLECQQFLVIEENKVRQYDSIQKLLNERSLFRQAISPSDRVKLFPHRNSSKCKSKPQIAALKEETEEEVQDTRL

SMILES	EC50 [1] [nM]	EC50 [2] [nM]	Maximum % activity (with co-corrector) [3]	Emax [4] [%]	EC50 [nM]	EC50 (EC50 (without co-corrector), test compound without co-corrector) [nM]	Emax [%]
COc1ccc(C2CC3CCC2C3)cc1CN[C@H]1[C@H](C(C)(C)OC)[C@@H](C(=O)O)N(C(=O)C2CCCCC2)[C@H]1c1ccccc1 (stereo partly shown) [Example I-117]	1000 to 10000	< 1000	+++ (≥350)	> 200			
COc1ccc(CC2CCCCC2)cc1CN[C@H]1[C@H](C(C)(C)OC)[C@@H](C(=O)O)N(C(=O)C2CCCCC2)[C@H]1c1ccccc1 [Example I-118]	< 1000	< 1000	+++ (≥350)	> 200			
COc1ccc(C(C)(C)C)cc1CN[C@H]1[C@H](C(C)(C)C)[C@@H](C(=O)O)N(C(=O)OC2CCCC2)[C@H]1c1ccccc1 [Example I-119]	1000 to 10000	< 1000	+++ (≥350)	> 200			
COc1ncc(C(F)(F)F)cc1CN[C@H]1[C@H](C(C)(C)C)[C@@H](C(=O)O)N(C(=O)C2CCCCC2)[C@H]1c1cccnc1N(C)C [Example I-120]	1000 to 10000	1000 to 10000	+++ (≥350)	100 to 200			
COc1ccc(C(F)(F)F)cc1CN[C@H]1[C@H](C(C)(C)C)[C@@H](C(=O)O)N(C(=O)[C@@H]2CCCC(F)(F)C2)[C@H]1c1ccccc1 [Example I-124]	1000 to 10000	1000 to 10000	+++ (≥350)	< 100			
COc1ccc(-c2ccnnc2)cc1CN[C@H]1[C@H](C(C)(C)C)[C@@H](C(=O)O)N(C(=O)C2CCCCC2)[C@H]1c1ccccc1 [Example I-125]	> 10000	> 10000	+ (<150)	< 100			
COc1ccc(-c2ccccc2F)cc1CN[C@H]1[C@H](C(C)(C)C)[C@@H](C(=O)O)N(C(=O)C2CCCCC2)[C@H]1c1ccccc1 [Example I-126]	< 1000	< 1000	+++ (≥350)	> 200			
COc1ccc(-c2sc(C)nc2C)cc1CN[C@H]1[C@H](C(C)(C)C)[C@@H](C(=O)O)N(C(=O)C2CCCCC2)[C@H]1c1ccccc1 [Example I-127]	1000 to 10000	1000 to 10000	+++ (≥350)	100 to 200			
COc1ccc(-c2ccccc2C#N)cc1CN[C@H]1[C@H](C(C)(C)C)[C@@H](C(=O)O)N(C(=O)C2CCCCC2)[C@H]1c1ccccc1 [Example I-128]	1000 to 10000	1000 to 10000	+++ (≥350)	100 to 200			
COc1ccc(C2=CCOCC2)cc1CN[C@H]1[C@H](C(C)(C)C)[C@@H](C(=O)O)N(C(=O)C2CCCCC2)[C@H]1c1ccccc1 [Example I-129]	1000 to 10000	1000 to 10000	+++ (≥350)	100 to 200			
COc1ncc(C(C)(C)C)cc1CN[C@H]1[C@H](C(C)(C)C)[C@@H](C(=O)O)N(C(=O)C2CCCCC2)[C@H]1c1ccc(F)cc1 [Example I-130]	< 1000	< 1000	+++ (≥350)	> 200			
COc1ncc(C2CCC2)cc1CN[C@H]1[C@H](C(C)(C)C)[C@@H](C(=O)O)N(C(=O)C2CCCCC2)[C@H]1c1cccnc1N(C)C [Example I-131]	1000 to 10000	1000 to 10000	+++ (≥350)	> 200			
COc1ncc(C2CCCC2)cc1CN[C@H]1[C@H](C(C)(C)C)[C@@H](C(=O)O)N(C(=O)C2CCCCC2)[C@H]1c1cccnc1N(C)C [Example I-132]	1000 to 10000	1000 to 10000	+++ (≥350)	> 200			
COc1ncc(C2CC3CCC2C3)cc1CN[C@H]1[C@H](C(C)(C)C)[C@@H](C(=O)O)N(C(=O)C2CCCCC2)[C@H]1c1cccnc1N(C)C (stereo partly shown) [Example I-133]	1000 to 10000	1000 to 10000	+++ (≥350)	> 200			
COc1ccc(Br)nc1CN[C@H]1[C@H](C(C)(C)C)[C@@H](C(=O)O)N(C(=O)C2CCCCC2)[C@H]1c1ccccc1 [Example I-134]	1000 to 10000	1000 to 10000	+++ (≥350)	100 to 200			
COc1ncc(C(C)(C)C)cc1CN[C@H]1[C@H](C(C)(C)C)[C@@H](C(=O)O)N(C(=O)C2CCCCC2)[C@H]1c1cccnc1OC [Example I-135]	1000 to 10000	1000 to 10000	+++ (≥350)	> 200			
COc1ccc(C(F)(F)F)cc1CN[C@H]1[C@H](C2(C)CC2)[C@@H](C(=O)O)N(C(=O)C2CCCCC2)[C@H]1c1ccccc1 [Example I-136]	1000 to 10000	1000 to 10000	+++ (≥350)	100 to 200			

SMILES	EC50 [1] [nM]	EC50 [2] [nM]	Maximum % activity (with co-corrector) [3]	Emax [4] [%]	EC50 [nM]	EC50 (EC50 (without co-corrector), test compound without co-corrector) [nM]	Emax [%]
COc1ccc(C(C)(C)C)cc1CN[C@H]1[C@H](C(C)(C)C)[C@@H](C(=O)O)N(C(=O)[C@@H](C)Oc2ccccc2)[C@H]1c1ccccc1 [Example I-137]	1000 to 10000	1000 to 10000	+++ (≥350)	> 200			
COc1ccc(C(C)(C)C)cc1CN[C@H]1[C@H](C(C)(C)C)[C@@H](C(=O)O)N(C(=O)C2CCCCN2S(C)(=O)=O)[C@H]1c1ccccc1 (stereo partly shown) [Example I-138]	1000 to 10000	1000 to 10000	+++ (≥350)	> 200			
COc1ncc(-c2ccccc2F)cc1CN[C@H]1[C@H](C(C)(C)C)[C@@H](C(=O)O)N(C(=O)C2CCCCC2)[C@H]1c1ccccc1 [Example I-140]	< 1000	< 1000	+++ (≥350)	> 200			
COc1ccc(C2(C(F)(F)F)CC2)cc1CN[C@H]1[C@H](C(C)(C)C)[C@@H](C(=O)O)N(C(=O)OC(C)C)[C@H]1c1ccccc1 [Example I-141]	1000 to 10000	< 1000	+++ (≥350)	> 200			
COc1ncc(C(C)(C)C)cc1CN[C@H]1[C@H](C(C)(C)C)[C@@H](C(=O)O)N(C(=O)[C@@H]2CCCCO2)[C@H]1c1cccnc1N(C)C [Example I-142]	1000 to 10000	1000 to 10000	+++ (≥350)	> 200			
COc1ccc(C(C)(C)C)cc1CN[C@H]1[C@H](C(C)(C)C)[C@@H](C(=O)O)N(C(=O)c2cnn3ccccc23)[C@H]1c1ccccc1 [Example I-143]	1000 to 10000	1000 to 10000	+++ (≥350)	< 100			
CCc1c(C(=O)N2[C@H](C(=O)O)[C@@H](C(C)(C)C)[C@H](NCc3cc(C(C)(C)C)ccc3OC)[C@@H]2c2ccccc2)cnn1-c1ccc(OC)nn1 [Example I-144]	1000 to 10000	1000 to 10000	+++ (≥350)	100 to 200			
COc1ccc(C(C)(C)C)cc1CN[C@H]1[C@H](C(C)(C)C)[C@@H](C(=O)O)N(C(=O)c2cnn(C(C)(C)C)c2C(C)C)[C@H]1c1ccccc1 [Example I-145]	1000 to 10000	1000 to 10000	+++ (≥350)	100 to 200			
COc1ccc(C(C)(C)C)cc1CN[C@H]1[C@H](C(C)(C)C)[C@@H](C(=O)O)N(C(=O)c2c(C)nn(-c3ccccc3F)c2C)[C@H]1c1ccccc1 [Example I-146]	1000 to 10000	< 1000	+++ (≥350)	> 200			
COc1ccc(C(C)(C)C)cc1CN[C@H]1[C@H](C(C)(C)C)[C@@H](C(=O)O)N(C(=O)C2(C)CCc3cc(C)ccc32)[C@H]1c1ccccc1 (stereo partly shown) [Example I-147]	1000 to 10000	1000 to 10000	+++ (≥350)	< 100			
COc1ccc(C(C)(C)C)cc1CN[C@H]1[C@H](C(C)(C)C)[C@@H](C(=O)O)N(C(=O)CC2(O)CCC2)[C@H]1c1ccccc1 [Example I-148]	1000 to 10000	1000 to 10000	+++ (≥350)	> 200			
COc1ccc(C(C)(C)C)cc1CN[C@H]1[C@H](C(C)(C)C)[C@@H](C(=O)O)N(C(=O)C2CCCCC2C(=O)N2CCC2)[C@H]1c1ccccc1 (stereo partly shown) [Example I-149]	1000 to 10000	1000 to 10000	+++ (≥350)	> 200			
COc1ccc(C(C)(C)C)cc1CN[C@H]1[C@H](C(C)(C)C)[C@@H](C(=O)O)N(C(=O)Oc2ccccc2)[C@H]1c1ccccc1 [Example I-153]			+++ (≥350)		< 1000	1000 to 10000	> 200
COc1ccc(C(C)(C)C)cc1CN[C@H]1[C@H](C(C)(C)C)[C@@H](C(=O)O)N(C(=O)OCc2ccccc2Cl)[C@H]1c1ccccc1 [Example I-154]	< 1000	< 1000	+++ (≥350)	100 to 200			
COc1ccc(C2(C#N)CCC2)cc1CN[C@H]1[C@H](C(C)(C)C)[C@@H](C(=O)O)N(C(=O)C2CCCCC2)[C@H]1c1ccccc1 [Example I-155]	1000 to 10000	1000 to 10000	+++ (≥350)	100 to 200			
COc1ccc(C(C)(C)C)cc1CN[C@H]1[C@H](C(C)(C)C)[C@@H](C(=O)O)N(C(=O)C(OC)C2CCCCC2)[C@H]1c1ccccc1 (stereo partly shown) [Example I-160]	< 1000	< 1000	+++ (≥350)	> 200			
COc1ccc(C(F)(F)F)cc1CN[C@H]1[C@H](C(C)(C)C)[C@@H](C(=O)O)N(C(=O)C2C3CCCC32)[C@H]1c1ccccc1 (stereo partly shown) [Example I-161]	1000 to 10000	1000 to 10000	+++ (≥350)	> 200			
